In brackets after ≈: the same amount, converted by molar mass. Activity calls are given as the source filed them. No cut-off for these calls is given here.
Key:
[1] = molecular target: T1, Phosphatidylinositol 4,5-bisphosphate 3-kinase catalytic subunit delta isoform (Homo sapiens, UniProt O00329); assay: Inhibition of human PI3Kdelta after 15 mins
T1 sequence (O00329 whole entry): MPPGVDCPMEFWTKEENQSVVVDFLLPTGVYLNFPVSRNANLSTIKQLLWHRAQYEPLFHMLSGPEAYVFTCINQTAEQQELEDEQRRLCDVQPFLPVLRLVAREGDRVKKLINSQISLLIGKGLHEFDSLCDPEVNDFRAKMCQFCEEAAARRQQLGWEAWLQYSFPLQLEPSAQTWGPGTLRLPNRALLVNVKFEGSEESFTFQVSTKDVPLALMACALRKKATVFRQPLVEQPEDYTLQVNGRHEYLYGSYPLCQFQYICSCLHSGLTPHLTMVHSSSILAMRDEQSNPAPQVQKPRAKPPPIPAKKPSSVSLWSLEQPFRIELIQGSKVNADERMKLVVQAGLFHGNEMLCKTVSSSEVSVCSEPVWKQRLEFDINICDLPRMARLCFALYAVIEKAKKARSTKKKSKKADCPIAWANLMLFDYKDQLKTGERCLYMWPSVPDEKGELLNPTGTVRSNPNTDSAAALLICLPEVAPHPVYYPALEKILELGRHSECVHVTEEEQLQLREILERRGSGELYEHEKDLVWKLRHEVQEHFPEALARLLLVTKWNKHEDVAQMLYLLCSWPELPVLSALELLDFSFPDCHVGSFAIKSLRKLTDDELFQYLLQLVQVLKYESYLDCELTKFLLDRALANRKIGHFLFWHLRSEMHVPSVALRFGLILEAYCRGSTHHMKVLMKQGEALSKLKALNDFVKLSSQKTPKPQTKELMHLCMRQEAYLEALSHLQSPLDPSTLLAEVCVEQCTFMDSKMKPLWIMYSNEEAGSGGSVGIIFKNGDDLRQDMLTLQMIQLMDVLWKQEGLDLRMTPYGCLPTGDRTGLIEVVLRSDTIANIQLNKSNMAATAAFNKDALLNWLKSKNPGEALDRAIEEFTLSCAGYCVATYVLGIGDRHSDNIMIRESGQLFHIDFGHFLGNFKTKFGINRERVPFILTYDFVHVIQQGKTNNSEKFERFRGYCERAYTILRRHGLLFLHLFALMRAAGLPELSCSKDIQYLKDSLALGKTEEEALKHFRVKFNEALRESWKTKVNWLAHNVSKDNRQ

[2] = molecular target: Cytochrome P450 3A4 (Homo sapiens, UniProt P08684); assay: Inhibition of human recombinant CYP3A4
[3] = molecular target: Phosphatidylinositol 4,5-bisphosphate 3-kinase catalytic subunit alpha isoform (Homo sapiens, UniProt P42336); assay: Inhibition of human PI3Kalpha after 15 mins
[4] = Thermodynamic solubility of the compound in 50 mM Phosphate buffer at pH 7.4 after 16 hrs by HPLC analysis; type: physicochemical; conditions: phosphate buffer, pH 7.4; read-out: Therm_solubility
[5] = (§1) Apparent permeability of the compound in human Caco2 cells; type: ADME, cell-based; conditions: Caco-2
[6] = Drug metabolism in human liver microsomes assessed as compound lability; type: ADME; conditions: liver microsomes, read-out: Drug metabolism
[7] = molecular target: T2, Phosphatidylinositol 4,5-bisphosphate 3-kinase catalytic subunit beta isoform (Homo sapiens, UniProt P42338); assay: Inhibition of human PI3Kbeta after 15 mins
[8] = Drug metabolism in mouse liver microsomes assessed as compound lability; type: ADME, Microsome; conditions: for metabolised: liver microsomes, read-out: Drug metabolism; for Drug metabolism: microsomes
[9] = molecular target: Phosphatidylinositol 4,5-bisphosphate 3-kinase catalytic subunit gamma isoform (Homo sapiens, UniProt P48736); assay: Inhibition of human PI3Kgamma after 15 mins
[10] = molecular target: T2, Phosphatidylinositol 4,5-bisphosphate 3-kinase catalytic subunit beta isoform; assay: Inhibition of PI3Kbeta in human PTEN-deficient PC3 cells assessed as Akt phosphorylation at S473; type: cell-based, PC-3
[11] = test system: Caco-2; assay: as §1; type: ADME, cell-based
[12] = test system: Mus musculus; assay: Inhibition of PI3Kbeta in SCID mouse harboring human PTEN-deficient PC3 cells assessed as Akt phosphorylation at S473 at 150 mg/kg, po after 1 hr; type: functional, organism-based; parameters: dose 150 mg/kg; conditions: PC-3
[13] = test system: Mus musculus; assay: Inhibition of PI3Kbeta in SCID mouse harboring human PTEN-deficient PC3 cells assessed as Akt phosphorylation at S473 at 150 mg/kg, po after 16 hrs; type: functional, organism-based; parameters: dose 150 mg/kg; conditions: PC-3
[14] = test system: Mus musculus; assay: Inhibition of PI3Kbeta in SCID mouse harboring human PTEN-deficient PC3 cells assessed as Akt phosphorylation at S473 at 150 mg/kg, po after 7 hrs; type: functional, organism-based; parameters: dose 150 mg/kg; conditions: PC-3

Chain of Phosphatidylinositol 4,5-bisphosphate 3-kinase catalytic subunit gamma isoform (P48736 whole entry, canonical isoform): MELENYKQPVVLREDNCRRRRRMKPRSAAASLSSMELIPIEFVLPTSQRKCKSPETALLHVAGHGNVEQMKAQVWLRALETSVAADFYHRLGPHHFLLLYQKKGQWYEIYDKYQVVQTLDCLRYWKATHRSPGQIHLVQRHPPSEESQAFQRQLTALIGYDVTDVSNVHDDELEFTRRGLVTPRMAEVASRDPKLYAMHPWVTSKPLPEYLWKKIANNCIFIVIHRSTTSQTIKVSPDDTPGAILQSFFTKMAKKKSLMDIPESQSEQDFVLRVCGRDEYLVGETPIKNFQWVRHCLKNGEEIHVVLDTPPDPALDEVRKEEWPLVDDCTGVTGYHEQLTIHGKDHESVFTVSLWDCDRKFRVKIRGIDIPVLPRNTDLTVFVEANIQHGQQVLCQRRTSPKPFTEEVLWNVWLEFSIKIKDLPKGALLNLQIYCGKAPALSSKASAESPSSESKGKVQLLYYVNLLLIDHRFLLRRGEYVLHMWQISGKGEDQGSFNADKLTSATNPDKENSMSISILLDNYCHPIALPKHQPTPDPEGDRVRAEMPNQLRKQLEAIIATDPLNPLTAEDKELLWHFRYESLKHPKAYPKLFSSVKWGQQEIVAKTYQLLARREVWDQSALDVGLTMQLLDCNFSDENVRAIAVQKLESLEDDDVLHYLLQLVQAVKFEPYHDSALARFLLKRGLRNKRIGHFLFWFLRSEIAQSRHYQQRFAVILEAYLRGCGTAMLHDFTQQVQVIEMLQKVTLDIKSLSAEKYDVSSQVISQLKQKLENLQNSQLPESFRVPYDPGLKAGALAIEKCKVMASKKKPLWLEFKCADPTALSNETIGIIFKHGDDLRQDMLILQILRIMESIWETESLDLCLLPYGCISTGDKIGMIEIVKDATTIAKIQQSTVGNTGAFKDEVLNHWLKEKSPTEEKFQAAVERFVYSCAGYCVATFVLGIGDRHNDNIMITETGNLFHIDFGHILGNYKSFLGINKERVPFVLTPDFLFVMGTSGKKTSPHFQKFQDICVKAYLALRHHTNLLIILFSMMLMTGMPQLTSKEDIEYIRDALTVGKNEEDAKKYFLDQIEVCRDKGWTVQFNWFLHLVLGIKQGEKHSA
Chain of Phosphatidylinositol 4,5-bisphosphate 3-kinase catalytic subunit alpha isoform (P42336 whole entry, canonical isoform): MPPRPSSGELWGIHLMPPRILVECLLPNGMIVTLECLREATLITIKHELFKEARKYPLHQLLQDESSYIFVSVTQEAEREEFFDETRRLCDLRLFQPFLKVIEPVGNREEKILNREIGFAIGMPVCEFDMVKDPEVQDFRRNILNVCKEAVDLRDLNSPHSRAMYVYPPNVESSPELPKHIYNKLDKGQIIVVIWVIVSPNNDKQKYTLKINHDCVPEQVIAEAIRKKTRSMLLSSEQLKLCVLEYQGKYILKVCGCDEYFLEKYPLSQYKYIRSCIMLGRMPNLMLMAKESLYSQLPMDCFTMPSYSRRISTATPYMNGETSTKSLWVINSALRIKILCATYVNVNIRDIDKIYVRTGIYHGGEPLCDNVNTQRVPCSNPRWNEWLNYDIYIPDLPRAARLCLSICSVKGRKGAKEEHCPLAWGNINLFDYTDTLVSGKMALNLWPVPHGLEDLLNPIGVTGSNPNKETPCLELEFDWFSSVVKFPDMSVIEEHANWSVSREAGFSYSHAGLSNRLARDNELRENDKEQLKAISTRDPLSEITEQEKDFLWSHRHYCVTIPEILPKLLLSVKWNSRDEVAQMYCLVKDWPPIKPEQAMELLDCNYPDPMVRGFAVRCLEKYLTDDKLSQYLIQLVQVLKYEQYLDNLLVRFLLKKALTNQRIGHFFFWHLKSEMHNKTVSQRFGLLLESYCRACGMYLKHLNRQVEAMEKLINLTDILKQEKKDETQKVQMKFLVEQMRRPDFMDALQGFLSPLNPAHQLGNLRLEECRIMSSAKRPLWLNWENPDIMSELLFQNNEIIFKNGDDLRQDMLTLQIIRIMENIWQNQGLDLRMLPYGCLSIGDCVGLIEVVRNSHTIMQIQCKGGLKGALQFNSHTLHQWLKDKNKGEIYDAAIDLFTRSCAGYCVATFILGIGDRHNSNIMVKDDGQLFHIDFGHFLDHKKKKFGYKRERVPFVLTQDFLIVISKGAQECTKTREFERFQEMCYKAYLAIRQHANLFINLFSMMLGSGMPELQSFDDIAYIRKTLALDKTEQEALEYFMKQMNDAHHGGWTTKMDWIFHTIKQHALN
T2 sequence (P42338 whole entry, canonical isoform): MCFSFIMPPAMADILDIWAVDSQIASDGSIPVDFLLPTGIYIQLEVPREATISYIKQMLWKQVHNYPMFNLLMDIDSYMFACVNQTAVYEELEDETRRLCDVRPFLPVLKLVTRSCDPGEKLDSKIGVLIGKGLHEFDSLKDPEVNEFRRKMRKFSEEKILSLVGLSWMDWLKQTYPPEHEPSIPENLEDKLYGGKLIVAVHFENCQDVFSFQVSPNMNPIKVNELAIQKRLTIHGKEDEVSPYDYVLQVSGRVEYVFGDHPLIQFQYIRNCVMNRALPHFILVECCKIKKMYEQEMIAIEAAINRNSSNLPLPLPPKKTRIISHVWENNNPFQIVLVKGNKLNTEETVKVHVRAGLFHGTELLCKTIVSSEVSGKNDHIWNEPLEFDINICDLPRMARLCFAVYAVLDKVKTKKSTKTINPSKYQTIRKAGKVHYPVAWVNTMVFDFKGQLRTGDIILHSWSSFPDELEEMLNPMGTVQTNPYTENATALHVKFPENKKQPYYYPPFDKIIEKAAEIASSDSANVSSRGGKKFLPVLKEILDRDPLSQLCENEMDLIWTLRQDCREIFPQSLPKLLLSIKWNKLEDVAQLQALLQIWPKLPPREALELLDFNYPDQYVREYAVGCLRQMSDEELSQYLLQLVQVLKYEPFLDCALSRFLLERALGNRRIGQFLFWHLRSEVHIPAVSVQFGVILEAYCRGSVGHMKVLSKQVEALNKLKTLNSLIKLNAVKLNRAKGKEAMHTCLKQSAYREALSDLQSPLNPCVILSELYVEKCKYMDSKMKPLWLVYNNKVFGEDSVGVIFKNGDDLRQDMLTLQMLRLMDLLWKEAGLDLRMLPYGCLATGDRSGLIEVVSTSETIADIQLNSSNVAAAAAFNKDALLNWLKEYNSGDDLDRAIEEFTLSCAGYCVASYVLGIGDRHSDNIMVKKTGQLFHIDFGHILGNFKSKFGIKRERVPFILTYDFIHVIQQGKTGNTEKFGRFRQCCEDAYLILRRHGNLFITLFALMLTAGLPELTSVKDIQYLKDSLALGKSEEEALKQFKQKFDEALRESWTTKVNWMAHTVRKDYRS
Chain of Cytochrome P450 3A4 (P08684 whole entry, canonical isoform): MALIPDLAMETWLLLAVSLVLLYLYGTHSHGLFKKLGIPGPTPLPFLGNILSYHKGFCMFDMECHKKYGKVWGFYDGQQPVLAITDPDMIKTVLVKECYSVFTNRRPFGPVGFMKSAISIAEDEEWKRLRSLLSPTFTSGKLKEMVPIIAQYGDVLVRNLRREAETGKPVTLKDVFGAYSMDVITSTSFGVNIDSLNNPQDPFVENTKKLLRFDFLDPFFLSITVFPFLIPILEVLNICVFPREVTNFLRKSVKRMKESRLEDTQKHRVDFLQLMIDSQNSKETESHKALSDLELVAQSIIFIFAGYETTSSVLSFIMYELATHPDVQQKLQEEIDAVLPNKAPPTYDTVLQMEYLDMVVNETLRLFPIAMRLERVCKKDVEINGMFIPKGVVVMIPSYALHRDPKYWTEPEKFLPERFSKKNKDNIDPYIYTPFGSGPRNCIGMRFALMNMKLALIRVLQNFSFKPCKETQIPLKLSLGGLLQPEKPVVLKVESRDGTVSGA

| Compound | IC50 [1] [nM] | IC50 [2] [nM] | IC50 [3] [nM] | solubility thermodynamic at 16 h [4] [µM] | Papp [5] [×10⁻⁶ cm/s] | metabolised [6] [%] | IC50 [7] [nM] | metabolised [8] [%] | IC50 [9] [nM] | IC50 [10] [nM] | Papp [11] [×10⁻⁶ cm/s] | Drug metabolism [8] [%] | inhibition [12] | inhibition [13] | inhibition [14] |
| --- | --- | --- | --- | --- | --- | --- | --- | --- | --- | --- | --- | --- | --- | --- | --- |
| CC1Cc2cc(F)ccc2N1C(=O)Cc1nc(N2CCOCC2)sc1C(N)=O (stereo not drawn) | 127 | 40 | > 10000 | 45 (≈ 18.2 µg/mL) | 19.3 | 42 | 20 | 48 | > 10000 | 14 | – | – | – | – | – |
| NC(=O)c1sc(N2CCOCC2)nc1CC(=O)N1CCc2cc(Br)ccc21 | 483 | – | > 10000 | – | – | – | 240 | – | > 10000 | 420 | – | – | – | – | – |
| CC1Cc2c(Cl)cccc2N1C(=O)Cc1nc(N2CCOCC2)sc1C(N)=O (stereo not drawn) | 58 | – | > 10000 | 2 (≈ 0.842 µg/mL) | 29.6 | 77 | 10 | 70 | > 10000 | 13 | – | – | – | – | – |
| CC1CN(C(=O)Cc2nc(N3CCOCC3)sc2C(N)=O)c2ccccc21 (racemic) | 567 | – | > 10000 | – | – | – | 130 | – | 4200 | 75 | – | – | – | – | – |
| CC1Cc2c(Br)cccc2N1C(=O)Cc1nc(N2CCOCC2)sc1C(=O)O (single isomer, unassigned; enantiomer 2) | 861 | 40000 | 3110 | 4290 (≈ 2000 µg/mL) | – | 0 | 84 | – | 10000 | 307 | 0.4 | 7 | – | – | – |
| NC(=O)c1sc(N2CCOCC2)nc1CC(=O)N1CCc2cc(Cl)ccc21 | 1860 | – | > 10000 | – | – | – | 166 | – | > 10000 | 110 | – | – | – | – | – |
| CC1Cc2ccccc2N1C(=O)Cc1nc(N2CCOCC2)sc1C(N)=O (racemic) | 435 | – | > 10000 | – | – | – | 178 | – | > 10000 | 40 | – | – | – | – | – |
| CC1Cc2c(Br)cccc2N1C(=O)Cc1nc(N2CCOCC2)sc1C(=O)O (single isomer, unassigned; enantiomer 1) | – | – | – | – | – | – | – | – | – | – | – | – | Active | Active | Active |
| O=C(O)c1sc(N2CCOCC2)nc1CC(=O)N1CCc2cc(Br)ccc21 | 1000 | – | > 10000 | – | – | – | 308 | – | > 10000 | 3000 | – | – | – | – | – |
| NC(=O)c1sc(N2CCOCC2)nc1CC(=O)N1CCc2c(F)cccc21 | 485 | – | 7230 | – | – | – | 138 | – | > 10000 | 38 | – | – | – | – | – |
| CC1Cc2c(Br)cccc2N1C(=O)Cc1nc(N2CCOCC2)sc1C(N)=O (single isomer, unassigned; (-)) | 92 | 25000 | 1320 | – | 20.9 | 85 | 13 | – | 3260 | 3 | – | 89 | – | – | – |
| NC(=O)c1sc(N2CCOCC2)nc1CC(=O)N1CCc2c(Cl)cccc21 | 277 | 40000 | 6330 | 2 (≈ 0.814 µg/mL) | – | 40 | 49 | 61 | > 10000 | 122 | – | – | – | – | – |
| NC(=O)c1sc(N2CCOCC2)nc1CC(=O)N1CCc2c(Br)cccc21 | 178 | 40000 | 2150 | 2 (≈ 0.903 µg/mL) | 24.7 | 57 | 11 | 63 | 8130 | 22 | – | – | – | – | – |
| O=C(O)c1sc(N2CCOCC2)nc1CC(=O)N1CCc2c(Cl)cccc21 | 245 | 40000 | 2210 | 1480 (≈ 602 µg/mL) | 0.7 | 1 | 23 | 9 | > 10000 | 2000 | – | – | – | – | – |
| CC1Cc2ccccc2N1C(=O)Cc1nc(N2CCOCC2)sc1C(=O)O (racemic) | 2720 | – | > 10000 | – | – | – | 340 | – | > 10000 | 2310 | – | – | – | – | – |
| NC(=O)c1sc(N2CCOCC2)nc1CC(=O)N1CCc2ccccc21 | 230 | 40000 | 4080 | 3 (≈ 1.12 µg/mL) | 16 | 35 | 71 | 44 | > 10000 | 25 | – | – | – | – | – |
| NC(=O)c1sc(N2CCOCC2)nc1CC(=O)Nc1ccc(F)c(Cl)c1 | 227 | – | 8280 | – | – | – | 45 | – | > 10000 | – | – | – | – | – | – |
| CC1Cc2cc(F)ccc2N1C(=O)Cc1nc(N2CCOCC2)sc1C(=O)O (stereo not drawn) | 219 | 40000 | > 10000 | 4930 (≈ 2000 µg/mL) | 0.9 | 3 | 15 | 3 | > 10000 | 817 | – | – | – | – | – |
| CC1Cc2c(Cl)cccc2N1C(=O)Cc1nc(N2CCOCC2)sc1C(=O)O (stereo not drawn) | 149 | 40000 | > 10000 | 4740 (≈ 2000 µg/mL) | 0.9 | 8 | 8 | 17 | > 10000 | 876 | – | – | – | – | – |
| O=C(O)c1sc(N2CCOCC2)nc1CC(=O)N1CCc2ccccc21 | 1550 | – | > 10000 | – | – | – | 270 | – | > 10000 | 1420 | – | – | – | – | – |
| O=C(O)c1sc(N2CCOCC2)nc1CC(=O)N1CCc2c(Br)cccc21 | 133 | 40000 | 1120 | – | 0.2 | 8 | 11 | 0 | > 10000 | 1780 | – | – | – | – | – |

— ChEMBL document CHEMBL3124816, “Preparation and optimization of new 4-(2-(indolin-1-yl)-2-oxoethyl)-2-morpholinothiazole-5-carboxylic acid and amide derivatives as potent and selective PI3Kβ inhibitors” (Bioorg Med Chem Lett, 2014)
